# Data: US20240091145A1, “DRY MUCO-ADHESIVE COMPOSITIONS AND USE THEREOF” (TECHNION RESEARCH & DEVELOPMENT FOUNDATION LIMITED, priority 2021, published 2024)
# Legend:
# [1] = tested on: SCC7 cell line; assay: Cell viability assay (MTT); type: cell-based, murine
# Description: Murine squamous cell carcinoma cell line, SCC7 purchased from Prof. Reinhard Zeidler, at the German Research Center for Environmental Health in Munich, were cultured in DMEM containing 10% v/v FBS and (2 mM) L-glutamine, kept at a temperature of 37° C. and in humidified atmosphere containing 5% v/v CO2 and 95% v/v air. For maintain cell growth, cells were split every 2-3 days using […] trypsin solution for detaching.
# Tablets (1×3 mm) containing alginate (0.8, 1.6 mg) and liposomes (0.8 mg) in the form of layered or homogenous, either empty or DOX loaded liposomes were prepared as described above. The final concentration of DOX in each tablet was (1.68 mg mL^−1). To examine the toxicity of the tablets containing the drug on SCC7 cell line, at first cells were seeded at a uniform density of 15,000 cells per well on 96 well plates in […] DMEM medium. On the day of the experiment, medium was replaced with fresh medium containing the tablets, free DOX and in some wells empty fresh medium to serve as control. Cells were incubated for 4, 8, 12, 24, 48 and 72 hr in humidified atmosphere at 37° C. Cells viability was measured using the MTT assay. The medium was removed and (100 μl) of MTT (1 mg mL^−1) in PBS^−1 were added to each well and incubated at 37° C. for 4 hr. […] The absorbance was measured at 570 nm and 690 nm for the background absorbance. […]
# [2] = tested on: OSCC cell line (HSC-2); conditions: in vitro; cited from earlier work
compound,measurement,setting,value
"COc1cccc2c1C(=O)c1c(O)c3c(c(O)c1C2=O)C[C@@](O)(C(=O)CO)C[C@@H]3O[C@H]1C[C@H](N)[C@H](O)[C@H](C)O1 [free DOX, Doxorubicin]",cell viability,"[1]; SCC7, long times",3-10%
same,cell viability,"[1]; SCC7, short times",28-40%
same,apoptosis induction,[2],"induce apoptosis through the activation of caspase-3, -8 and -9"
